Experimental data published in ChEMBL document CHEMBL1158868, “Bioactive and other sesquiterpenes from Chiloscyphus rivularis” (J Nat Prod, 1997).
Values after ≈ are worked out from the molar mass of the structure shown. Active and inactive are the calls of the source. No cut-off for these calls is given here.

Tests used:
[1] = tested on: Saccharomyces cerevisiae; assay: Antimicrobial activity against rad52 gene deficient and DNA repair deficient yeast RS322; format: functional
[2] = Cytotoxicity against human NCI60 cells; format: functional
[3] = tested on: Saccharomyces cerevisiae; assay: Antimicrobial activity against rad gene expressing and DNA repair proficient wild type yeast RS188N; format: functional
[4] = tested on: Saccharomyces cerevisiae; assay: Antimicrobial activity against rad52.top1 gene deficient yeast RS321; format: functional
[5] = tested on: A549; assay: Cytotoxicity against human A549 cells; format: functional, cell-based

Question: With `C=C(C)C(=O)[C@H]1CC(=O)C2=CC(=O)C[C@H](C)[C@]21C` as the compound, how does the IC12 [1] read?
Answer: Its IC12 is greater than 500 µg/mL.

Question: With `C[C@H]1CC[C@@H](O)[C@]23CC[C@H](C(=O)O2)[C@]13C` [RIVULALACTONE] as the compound, how does the IC12 [1] read?
Answer: Its IC12 is greater than 500 µg/mL.

Question: With `C=C(C)C(=O)[C@H]1CCC2=CC(=O)C[C@H](C)[C@]21C` as the compound, how does the IC12 [1] read?
Answer: The IC12 was greater than 500 µg/mL.

Question: For `C=C(CO)C(=O)[C@H]1CCC2=CCC[C@H](C)[C@]21C`, which GI50 [2] is on record?
Answer: The GI50 was 10 µM.

Question: What about the IC12 [1] of the same compound?
Answer: The IC12 was 75 µg/mL.

Question: What about the IC12 [3] of the same compound?
Answer: Its IC12 is 88 µg/mL.

Question: And the IC12 [4]?
Answer: The IC12 was greater than 1000 µg/mL.

Question: And the IC50 [5]?
Answer: Its IC50 is 2 µg/mL (≈ 8.53 µM).

Question: Which Activity [1] does the source give for `C[C@H]1CCC=C2CC[C@H](C(=O)C3(CO)CO3)[C@@]21C` (stereo partly specified) here?
Answer: Its Activity is “inactive”.

Question: With `C=C(CO)C(=O)[C@H]1CCC2=CC(=O)C[C@H](C)[C@]21C` as the compound, how does the IC12 [1] read?
Answer: Its IC12 is greater than 500 µg/mL.

Question: For `C[C@H]1CCC=C2CC[C@H](C(=O)C(O)(CO)CO)[C@@]21C`, which Activity [1] is on record?
Answer: Its Activity is “inactive”.
